# Source: PMC6928345, “Detection and functional characterization of sigma class GST in Phlebotomus argentipes and its role in stress tolerance and DDT resistance” (Scientific Reports, 2019)
# T1: rParg-GSTσ (sigma class GST of P. argentipes) (Phlebotomus argentipes, UniProt A0A5A4I953)
# T1 construct: PCR primers designed on P. papatasi GSTσ
# T1 sequence (A0A5A4I953 1-203): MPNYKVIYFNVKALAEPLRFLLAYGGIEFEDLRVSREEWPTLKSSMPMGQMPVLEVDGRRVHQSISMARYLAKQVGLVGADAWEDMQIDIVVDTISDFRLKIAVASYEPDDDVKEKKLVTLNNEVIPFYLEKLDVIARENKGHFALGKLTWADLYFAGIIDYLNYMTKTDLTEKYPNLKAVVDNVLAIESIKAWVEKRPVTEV
# Experiments:
# [1] = target: T1, rParg-GSTσ (sigma class GST of P. argentipes); assay: inhibition of GST activity, residual activity; assay type: biochemical
# [2] = target: T1, rParg-GSTσ (sigma class GST of P. argentipes); assay: spectrophotometric GSH conjugation assay, […] nm; assay type: biochemical; conditions: 1 mM GSH, CDNB 0.07–8 mM, sodium phosphate pH 6.5, room temperature
# purified protein [3] = substrate: CC(C)(OO)c1ccccc1; assay: purified protein; assay type: biochemical, Phlebotomus argentipes; conditions: 1 mM GSH, 0.2 mM NADPH, 1 mM EDTA, cumene hydroperoxide 0.08–1.0 mM, sodium phosphate buffer
# purified protein [4] = substrate: CCCCCC(O)/C=C/C=O; assay: purified protein; assay type: biochemical, Phlebotomus argentipes; conditions: 1 mM GSH, 4-HNE 10–100 µM, sodium phosphate buffer
molecule,measurement,setting,value
C=C(CC)C(=O)c1ccc(OCC(=O)O)c(Cl)c1Cl [Ethacrynic acid],IC50,[1],50 nM
O=[N+]([O-])c1ccc(Cl)c([N+](=O)[O-])c1 [CDNB],Km,[2],390 µM
"rParg-GSTσ (sigma class GST of P. argentipes) (Phlebotomus argentipes) (protein, PCR primers designed on P. papatasi GSTσ) MPNYKVIYFNVKALAEPLRFLLAYGGIEFEDLRVSREEWPTLKSSMPMGQMPVLEVDGRRVHQSISMARYLAKQVGLVGADAWEDMQIDIVVDTISDFRLKIAVASYEPDDDVKEKKLVTLNNEVIPFYLEKLDVIARENKGHFALGKLTWADLYFAGIIDYLNYMTKTDLTEKYPNLKAVVDNVLAIESIKAWVEKRPVTEV",Km,purified protein [3],180 µM
same,Km,purified protein [4],5.02 µM
